This is an account of results in patent publication US10420744B2, “Composition of chlorogenic acid and methods of making and using the same in treating serum lipid levels” (Vidya Herbs, Inc., priority 2014, dated 2019).

For this experiment, the system named is high fat diet fed rats. Put plainly: Anti-obesity activity, high fat diet in rats. The class given is in vivo, Wistar rats. The following applies: Group III: high fat diet + orlistat 30 mg/kg. The procedure: Objective: The objective was to investigate the effect of the CGA-7 complex against high fat diet fed rats. Model: High fat diet in rats […] Male Wistar rats were divided into six groups with six animals in each group. [table] Body weight was measured once every 2 days. Food intake was measured daily for 42 days. On day 43, all the animals were kept overnight fasting before sacrifice. Blood was collected by puncturing the retro orbital plexus. Serum was separated by centrifugation at 3000 rpm for 10 minutes. Serum was estimated for glucose, cholesterol, triglycerides and HDL. LDL and atherogenic index were also calculated. Liver, mesenteric, brown adipose tissue (BAT), left and right perirenal fat pads, left and right epididymal pads were isolated and weighed. Liver was isolated and estimated for liver triglycerides and cholesterol levels.

The structures appear in SMILES notation. Marks after values point to notes of the source that are not given here.

For the compound `CCCCCCCCCCC[C@@H](C[C@@H]1OC(=O)[C@H]1CCCCCC)OC(=O)[C@H](CC(C)C)NC=O` [orlistat, Orlistat], the liver cholesterol is on record as 49.66 ± 3.28***^b and the liver triglycerides is 64.64 ± 3.44***^b. Besides, where the note is “42 days”, the Average food intake is listed as 8.54 ± 0.40^nsb g/rat, the BAT is given as 0.19 ± 0.01**^b, the “Difference in body weight” value was 88.01 ± 3.68***^b and the “Epididymal fat pad Left” value was 0.50 ± 0.01**^b. In addition, for the setting “42 days”, the “Epididymal fat pad Right” value is given as 0.48 ± 0.01*^b, the Liver organ weight is 3.47 ± 0.11***^b, the Mesenteric fat is recorded as 0.98 ± 0.03*^b and the “Peri renal fat pad tissue Left” value is on record as 0.61 ± 0.05*^b. Where the note is “42 days”, the “Peri renal fat pad tissue Right” value was 0.65 ± 0.04*^b. Moreover, the Initial weight (baseline, in g (unit assumed)) is listed as 130.3 ± 0.56. For the same compound, the “Atherogenic Index” value (calculated) is on record as 2.20 ± 0.20***^b. Where the note is “day 43”, the “serum Glucose” value was 109.7 ± 3.93**^b mg/dL, the “serum HDL-c” value is on record as 20.47 ± 1.08*^b mg/dL, the “serum Total cholesterol” value is 63.38 ± 0.95***^b mg/dL and the “serum Triglyceride” value is 77.63 ± 4.27***^b mg/dL. Besides, the “serum LDL-c” value (day 43, calculated) is 27.39 ± 1.07^nsb mg/dL. For the same compound, the Final weight (male Wistar rats, 42 days, in g (unit assumed)) was found to be 218.4 ± 2.65.
